In ChEMBL document CHEMBL1149568, “Design, synthesis, and molecular modeling studies of 5'-deoxy-5'-ureidoadenosine: 5'-ureido group as multiple hydrogen bonding donor in the active site of S-adenosylhomocysteine hydrolase” (Bioorg Med Chem Lett, 2007):

Biological target: Adenosylhomocysteinase (Homo sapiens, UniProt P23526)
Assay: Inhibition of human recombinant placental SAH

Chain of Adenosylhomocysteinase (P23526 whole entry): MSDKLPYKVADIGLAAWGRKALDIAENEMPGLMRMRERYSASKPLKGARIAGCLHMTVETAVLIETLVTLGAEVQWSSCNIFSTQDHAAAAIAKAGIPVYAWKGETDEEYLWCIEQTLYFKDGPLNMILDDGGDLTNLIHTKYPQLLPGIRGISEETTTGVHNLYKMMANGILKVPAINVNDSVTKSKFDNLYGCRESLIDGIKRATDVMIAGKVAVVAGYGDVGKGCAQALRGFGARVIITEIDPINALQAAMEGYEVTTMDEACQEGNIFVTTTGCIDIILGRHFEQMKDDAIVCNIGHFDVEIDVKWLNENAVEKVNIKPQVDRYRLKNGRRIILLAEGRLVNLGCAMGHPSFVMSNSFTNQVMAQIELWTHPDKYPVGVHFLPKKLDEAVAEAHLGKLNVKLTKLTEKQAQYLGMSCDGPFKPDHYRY

NC(=O)NC[C@H]1O[C@@H](n2cnc3c(N)ncnc32)[C@H](O)[C@@H]1O
IC50: 7.53 µM

[N-]=[N+]=NC[C@H]1O[C@@H](n2cnc3c(N)ncnc32)[C@H](O)[C@@H]1O
IC50: 28.9 µM

NC[C@H]1O[C@@H](n2cnc3c(N)ncnc32)[C@H](O)[C@@H]1O
IC50: 75 µM
